Measurements published in patent US10828304B2, “Compositions and methods for white to beige adipogenesis” (University of South Florida, priority 2017, dated 2020).
pIC50: −log10 of the molar value.

Tests used:
PGC1α = PGC1α expression in 3T3-L1 cells; assay type: cell-based; settings: 100 nM, 3 to 5 days during terminal differentiation, vs adipocyte control
3T3-L1 cells [1] = assay: Oil Red O staining of triglycerides and lipids in 3T3-L1 cells; assay type: cell-based; settings: 100 nM, 3 to 5 days during terminal differentiation
Description: (§1) The effect of the Clk1 inhibitor DC677 or DC761 on 3T3-L1 cells was examined. 3T3-L1 cells were incubated with 50 nM TG003 (an inhibitor of Clk1), 100 nM DC677, or 100 nM DC761 for 3 to 5 days. Adipocytes were used as a control. UCP1 expression was determined (results are shown in FIG. 1A and FIG. 2A; RQ is reference quotient). Oil Red O (obtained from Sigma-Aldrich, St. Louis, Mo.) was used to stain triglycerides and lipids, and the levels of Oil Red O were determined by measuring absorbance at 520 nm (results are shown in FIG. 1C and FIG. 2C). MitoTracker™ Green (Thermo Fischer Scientific, Waltham, Mass.) was used to stain mitochondria, and levels were determined by measuring absorbance at 495 nm (results are shown in FIG. 1D and FIG. 2D).

3T3-L1 cells [2] = assay: Differentiation of 3T3-L1 cells into beige cells; assay type: cell-based; settings: for differentiation of 3T3-L1 cells into beige cells: 100 nM, 3 to 5 days
Description: as §1

UCP1 = UCP1 expression in 3T3-L1 cells; assay type: cell-based; settings: 100 nM, 3 to 5 days during terminal differentiation, vs adipocyte control
Description: as §1

Clk1 = settings: stated as 'may be about'; no test described; cited from earlier work
3T3-L1 cells [3] = assay: MitoTracker Green staining of mitochondria in 3T3-L1 cells; assay type: cell-based; settings: dose of 100 nM
Description: as §1
The effect of the Clk1 inhibitor DC677 on 3T3-L1 cells was examined with fluorescence microscopy. 3T3-L1 cells were cultured in a 12-well plate and differentiated by […] (MDI). The cells were then incubated with insulin, TG003, or DC677. On day 8, the cells were stained with MitoTracker™ Green (Thermo Fischer Scientific, Waltham, Mass.). In FIG. 3, the cell treatment is as follows: (1) insulin as a control; (2) 50 nm TG003 added on day 2; (3) 50 nm TG003 added on day 4; (4) 100 nm DC677 added on day 2; (5) 100 nm DC677 added on day 4; and (6) 100 nm DC677 added on day 6.

| Structure (SMILES) | PGC1α expression (PGC1α) | lipid storage and lipid droplet size (3T3-L1 cells [1]) | differentiation of 3T3-L1 cells into beige cells (3T3-L1 cells [2]) | UCP1 expression (UCP1) | pIC50 (Clk1) | mitochondrial biogenesis, effectiveness compared to TG003 at 50 nM (3T3-L1 cells [3]) | performance compared with TG003 (3T3-L1 cells [2]; 100 nM DC677 vs 50 nM TG003) |
| --- | --- | --- | --- | --- | --- | --- | --- |
| CC(=O)Nc1cccc(N2C(=O)c3cccc4cc([N+](=O)[O-])cc(c34)C2=O)c1 [DC761, N-[3-(5-nitro-1,3-dioxo-1H-benzo[de]isoquinolin-2(3H)-yl)phenyl]acetamide] | increased | stored fewer lipids in smaller lipid droplets | can differentiate into “beige” cells | increased | – | – | – |
| O=C1Nc2ccc(Br)cc2/C1=C\c1nc2ccccc2c(=O)n1Cc1ccccc1 [DC677, 3-benzyl-2-[(5-bromo-2-oxo-1,2-dihydro-3H-indol-3-ylidene)methyl]-4(3H)-quinazolinone] | increased | stored fewer lipids in smaller lipid droplets | can differentiate into “beige” cells | increased | – | highly effective | performs equally well to TG003 |
